PMC9457593, “Design, Synthesis, and Evaluation of New Mesenchymal–Epithelial Transition Factor (c-Met) Kinase Inhibitors with Dual Chiral Centers” (Molecules, 2022)
Where “and” joins values, the source holds several entries; their conditions need not be identical. Equal values may be shown once. Read-outs that look alike come from different tables or passages of the source.

Experiments:
MHCC97H cells [1] = assay: MTT antiproliferative assay; type: cell-based, human
Source text: On the basis of our former study, compounds 12a-b were designed and first screened for their antiproliferative activity against the c-Met-driven human hepatocarcinoma cells (MHCC97H), using a standard MTT assay. Tepotinib was used as a positive control.

c-Met kinase = target: T1, c-Met kinase (Homo sapiens, UniProt P08581); assay: c-Met kinase inhibition assay (Mobility Shifting Assay); type: biochemical; conditions: mean ± SD of three independent experiments
T1 construct: purchased Carna Bioscience 08-151
T1 sequence (P08581 956-1390 limits assumed): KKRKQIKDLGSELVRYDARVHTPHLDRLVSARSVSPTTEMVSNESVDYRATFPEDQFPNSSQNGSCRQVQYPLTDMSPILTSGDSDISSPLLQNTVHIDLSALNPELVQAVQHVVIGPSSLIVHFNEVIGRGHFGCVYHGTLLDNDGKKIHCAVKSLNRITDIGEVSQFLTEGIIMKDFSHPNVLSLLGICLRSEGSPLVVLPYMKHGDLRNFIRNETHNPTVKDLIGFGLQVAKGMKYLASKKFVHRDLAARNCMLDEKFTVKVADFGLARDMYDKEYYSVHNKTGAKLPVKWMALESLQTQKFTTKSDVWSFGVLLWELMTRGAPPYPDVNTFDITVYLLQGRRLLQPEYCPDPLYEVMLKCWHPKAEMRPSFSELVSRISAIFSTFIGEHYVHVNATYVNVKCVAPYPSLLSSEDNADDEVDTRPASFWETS
Experimental: The kinase inhibition assay was carried out according to the principle of MSA (Mobility Shifting Assay) detection. […] Using triple dilution method, 10 gradient concentration groups were received. Varying concentrations of compounds were transported in 384-well plates, and 100% DMSO was set as negative control. After adding kinase buffer, the 384-well plates were centrifuged and vortexed, followed by 10 min of incubation. […] Finally, adding stop solution ended kinase reaction, and the conversion% was detected by a microplate reader (Caliper EZ Reader II, Perkin Elmer, Waltham, Massachusetts, […]). The statistics were analyzed by GraphPad Prism 8, using log (inhibitor) vs. response–variable slope to fit the dose–effect curve.

MHCC97H cells [2] = tested on: MHCC97H cells; parameters: method as in PMID 29393886; conditions: compounds bearing a single chiral center, from our previous work; read-out: MHCC97H Cell IC50; cited from earlier work
[3] = tested on: LO2 (human normal liver cells); assay: Toxicity towards normal cells (LO2); conditions: for IC50: Homo sapiens, read-out: IC50 on LO2
[4] = tested on: HaCat (human immortalized keratinocytes); assay: Toxicity towards normal cells (HaCat); conditions: for IC50: Homo sapiens, HaCaT, read-out: IC50 on HaCat
MHCC97H cells [5] = assay: Annexin V-FITC/PI apoptosis analysis (flow cytometry); type: cell-based, human; conditions: 48 h
Experimental: MHCC97H cells were incubated with varying concentrations of compound (R, S)-12a or diluent (1‰ DMSO, as a negative control) for 48 h. The cells were harvested and washed with PBS twice. Then, 500 μL of binding buffer suspended cells were added. The cells were stained with 5 μL of Annexin V-FITC and 10 μL of PI (KGA105, KeyGEN, BioTECH, Nanjing, Jiangsu, China). Then, the cells were incubated at room temperature for 15 min without light exposure. Apoptosis was analyzed using a CytoFLXE flow cytometer (BECKMAN COLTER, Brea, CA, USA).

MHCC97H cells [6] = assay: Cell cycle analysis (PI, flow cytometry); type: cell-based, human; conditions: 10 nM, 48 h
Experimental: MHCC97H cells were incubated with varying concentrations of compound (R, S)-12a or 1‰ DMSO for 48 h. The cells were collected by centrifugation, washed with PBS, and fixed in 70% ice-cold ethanol at 4 °C for 12 h. After the removal of ethanol, each sample was re-suspended in 500 μL of staining buffer containing 50 μL of RNase A and 450 μL of propidium iodide (KGA511, KeyGEN, BioTECH, Nanjing, Jiangsu, China) and incubated at room temperature, avoiding light exposure for 30 min. The DNA content of the cells was measured using a CytoFLXE flow cytometer (BECKMAN COLTER, Brea, CA, USA).

MHCC-97H tumor cells = assay: Tumor cell morphology; type: cell-based, human; conditions: 10 and 50 nM
Experimental: Co-incubation with compound (R, S)-12a (1, 10, and 50 nM) led to a significant reduction in […] cell viability. Red arrowheads indicated distinct morphological changes, such as intracytoplasmic particles increasing, the cell shape change, and loss of adherent property. […] Aggregation, lysis, and cell debris also occurred.

AKT = assay: Immunofluorescence staining and Western blotting of AKT and p-AKT in MHCC97H cells; type: cell-based, human
Experimental: (§1) MHCC97H cells were seeded into confocal dishes and then treated with vehicle control (1‰ DMSO) and compound (R, S)-12a (2.5 nM). Cells were washed thrice with PBS, fixed with 4% paraformaldehyde for 15 min, and punched with 0.2% triton X100 and then blocked with 500 μL of blocking buffer at room temperature for 1 h. Cells were incubated with a primary monoclonal antibody (c-Met, p-c-Met, AKT, and p-AKT) at 4 °C for 12 h and then washed with PBS thrice, followed by incubation with the fluorescence secondary antibody (Alexa Fluor 488-labeled Goat Anti-Mouse IgG (H + L)-A0428) and labeling of nuclei by Hoechst33342 (MA0126, Meilunbio, Dalian, Liaoning, China). The cells were finally visualized by a confocal microscope (Carl Zessi Microscopy LSM 880, Oberkochen, Germany). The average fluorescence intensity of FITC channel was analyzed by Image J, and the illustration was drafted by GraphPad Prism8.
(§2) MHCC97H cells were then homogenized with lysis buffer. The protein concentrations were detected using a BCA Protein Assay Kit (Pierce BCA Protein Assay Kit 23227, Thermo, Waltham, MA, USA), and their extracts were reconstituted within loading buffer (Beyotime, Shanghai, China) and inactivated for 5 min at 100 °C. Subsequently, proteins (20 μg) were fractionated by 10% SDS-PAGE and transferred to PVDF membranes. Then, PVDF membranes were blocked in 10% skimmed milk and incubated with the appropriate dilution of primary antibodies, including c-Met (Abcam, Cambridge, UK), p-c-Met (Abcam), AKT (Cell Signaling Technology), p-AKT (Cell Signaling Technology), and GAPDH (Cell Signaling Technology, […], MA, USA). The above primary antibodies were then reacted with HRP-conjugated secondary antibody, and immunoreactive bands were visualized by an ECL Detection Reagent (36208ES60, Yeasen, Shanghai, China) and were estimated through densitometry with a chemiluminescence imaging system (Tanon, Shanghai, China). Intensities of the blots were quantified with Image J and analyzed by GraphPad Prism 8.

MHCC97H cells [7] = assay: Hoechst 33342 staining for apoptosis morphology; type: cell-based, human; conditions: 1, 5, and 10 nM, 48 h, vs vehicle control
Source text: Tumor cell apoptosis is an important stage in the effective treatment of cancer. To evaluate the capacity of compound (R, S)-12a to induce apoptosis in human cancer cell lines, we used Hoechst 33342 staining to investigate the effect of compound (R, S)-12a on MHCC97H cells. Hoechst 33342 staining was used to examine apoptosis through morphological observation.

c-Met = assay: Immunofluorescence staining and Western blotting of c-Met and p-c-Met in MHCC97H cells; type: cell-based, human
Experimental: as §1, §2

MHCC97H cells [8] = assay: Wound healing (cell scratch) assay; type: cell-based, human; conditions: 1, 2, and 3 nM; 0, 6, 12, and 24 h; vs vehicle control
Experimental: MHCC97H cells were seeded in a 6-well plate and cultured for 24 h; subsequently, the confluent monolayer cells were scratched with a 10 μL pipette tip. After that, the wound was washed with PBS thrice to remove the non-adherent cell debris. In addition, each petri dish had media containing (R, S)-12a in gradient concentrations (1, 2, and 3 nM) added. At 0, 6, 12, and 24 h, changes of cell scratch in area were photographed by phase contrast microscope and finally measured and analyzed by Image J.

[9] = MTT, 48 h, mean ± SD of three independent experiments, read-out: MHCC97H Cell IC50
[10] = immunofluorescence, 2.5 nM, 48 h

Question: With “(R,R)-3-(1-(1-(3-(5-(1-((1-Methyl-1,2,3,6-tetrahydropyridin-4-yl)oxy)ethyl)pyrimidin-2-yl)phenyl)ethyl)-6-oxo-1,6-dihydropyridazin-3-yl)benzonitrile [(R, R)-12b]” as the molecule, how does the IC50 (MHCC97H cells [1]; [9]) read?
Answer: The IC50 was 130 ± 38 nM.

Question: Which results are given for `CC(Oc1cnc(-c2cccc(C(C)n3nc(-c4cccc(C#N)c4)ccc3=O)c2)nc1)C1CCN(C)CC1` [(S, S)-12a]?
Answer: IC50 (c-Met kinase): 35.8 ± 6.8 nM; IC50 (MHCC97H cells [1]; [9]): 48.3 nM and 48 nM

Question: Which IC50 (MHCC97H cells [1]; [9]) does the source give for “(R,S)-3-(1-(1-(3-(5-(1-((1-Methyl-1,2,3,6-tetrahydropyridin-4-yl)oxy)ethyl)pyrimidin-2-yl)phenyl)ethyl)-6-oxo-1,6-dihydropyridazin-3-yl)benzonitrile [(R, S)-12b]” here?
Answer: The IC50 was 9 ± 5 nM.

Question: For `C[C@H](c1cccc(-c2ncc(OCC3CCN(C)CC3)cn2)c1)n1nc(-c2cccc(C#N)c2)ccc1=O` [(R)-5b], which IC50 (MHCC97H cells [2]) is on record?
Answer: The IC50 was 3.7 ± 1 nM.

Question: Which IC50 (MHCC97H cells [2]) does the source give for `C[C@@H](c1cccc(-c2ncc(OCC3CCN(C)CC3)cn2)c1)n1nc(-c2cccc(C#N)c2)ccc1=O` [(S)-5b] here?
Answer: Its IC50 is 118 ± 56 nM.

Question: What does the source list for `CC(Oc1cnc(-c2cccc(C(C)n3nc(-c4cccc(C#N)c4)ccc3=O)c2)nc1)C1CCN(C)CC1` [(S, R)-12a]?
Answer: IC50 (c-Met kinase): 195 ± 73.2 nM; IC50 (MHCC97H cells [1]; [9]): 205 nM and 210 nM

Question: Which IC50 [3] does the source give for `CN1CCC(COc2cnc(-c3cccc(Cn4nc(-c5cccc(C#N)c5)ccc4=O)c3)nc2)CC1` [Tepotinib, tepotinib, reference compound] here?
Answer: Its IC50 is 8730 ± 841 nM.

Question: What about the IC50 (MHCC97H cells [1]; Homo sapiens, MHCC97H, 48 h, read-out: MHCC97H Cell IC50) of the same molecule?
Answer: Its IC50 is 13 ± 2 nM.

Question: What about the IC50 (MHCC97H cells [1]; Homo sapiens, MHCC97H, read-out: IC50 on MHCC-97H) of the same molecule?
Answer: The IC50 was 13 ± 2 nM.

Question: What about the IC50 [4] of the same molecule?
Answer: Its IC50 is 1950 ± 349 nM.

Question: Which IC50 (MHCC97H cells [2]) does the source give for `CC(c1cccc(-c2ncc(OCC3CCN(C)CC3)cn2)c1)n1nc(-c2cccc(C#N)c2)ccc1=O` (racemic) [(±)-5b] here?
Answer: Its IC50 is 35.3 ± 11 nM.

Question: For `CC(Oc1cnc(-c2cccc(C(C)n3nc(-c4cccc(C#N)c4)ccc3=O)c2)nc1)C1CCN(C)CC1` [(R, R)-12a], which IC50 (c-Met kinase) is on record?
Answer: Its IC50 is 28.7 ± 5 nM.

Question: And the IC50 (MHCC97H cells [1]; [9])?
Answer: The IC50 was 30 ± 8 nM.

Question: Which “proportions of early and late apoptosis cells” value (MHCC97H cells [5]; 1 nM) does the source give for `CC(Oc1cnc(-c2cccc(C(C)n3nc(-c4cccc(C#N)c4)ccc3=O)c2)nc1)C1CCN(C)CC1` [(R, S)-12a] here?
Answer: Its value is 8.9%.

Question: What about the “proportions of early and late apoptosis cells” value (MHCC97H cells [5]; 5 nM) of the same molecule?
Answer: Its value is 33.3%.

Question: And the “proportion of cells in the G1 phase” value (MHCC97H cells [6])?
Answer: Its value is 70.99%.

Question: And the “proportion of cells in the G2/M phases” value (MHCC97H cells [6])?
Answer: Its value is 12.44%.

Question: What about the “Selectivity Index (LO2 vs MHCC-97H)” value [3] of the same molecule?
Answer: Its value is 5750.0.

Question: And the IC50 [3]?
Answer: Its IC50 is 11500 ± 1530 nM.

Question: What about the IC50 (c-Met kinase) of the same molecule?
Answer: Its IC50 is 1.56 ± 1 nM.

Question: What about the tumor cell morphology (MHCC-97H tumor cells) of the same molecule?
Answer: Its tumor cell morphology is “the cells shrank and floated and no longer adhered to the wall”.

Question: And the “phosphorylation level of AKT protein” value (AKT; Western blot, dose-dependent)?
Answer: Its value is “decrease”.

Question: And the “fluorescence intensity of AKT (total AKT protein)” value (AKT; [10])?
Answer: The value was “did not change significantly”.

Question: What about the “fluorescence intensity of p-AKT” value (AKT; [10]) of the same molecule?
Answer: Its value is “decreased significantly”.

Question: And the “nuclear morphology by Hoechst 33342 staining” value (MHCC97H cells [7])?
Answer: Its value is “obvious nucleolar pyknosis, DNA fragmentation, and chromatin condensation”.

Question: What about the IC50 (MHCC97H cells [1]; Homo sapiens, MHCC97H, Table 2, read-out: IC50 on MHCC-97H) of the same molecule?
Answer: The IC50 was 2 ± 2 nM.

Question: And the IC50 (MHCC97H cells [1]; [9])?
Answer: The IC50 was 2.1 nM.

Question: What about the “phosphorylation level of c-Met” value (c-Met; Western blot, dose-dependent) of the same molecule?
Answer: Its value is “decrease”.

Question: And the “fluorescence intensity of c-Met (total c-Met protein)” value (c-Met; [10])?
Answer: The value was “did not change significantly”.

Question: What about the “fluorescence intensity of p-c-Met” value (c-Met; [10]) of the same molecule?
Answer: Its value is “decreased significantly”.

Question: What about the wound closure (MHCC97H cells [8]) of the same molecule?
Answer: Its wound closure is “significantly suppressed wound closure”.

Question: And the “Selectivity Index (HaCat vs MHCC-97H)” value [4]?
Answer: Its value is 953.5.

Question: What about the IC50 [4] of the same molecule?
Answer: The IC50 was 1910 ± 250 nM.

Question: For “(S,S)-3-(1-(1-(3-(5-(1-((1-Methyl-1,2,3,6-tetrahydropyridin-4-yl)oxy)ethyl)pyrimidin-2-yl)phenyl)ethyl)-6-oxo-1,6-dihydropyridazin-3-yl)benzonitrile [(S, S)-12b]”, which IC50 (MHCC97H cells [1]; [9]) is on record?
Answer: The IC50 was 136 ± 52 nM.

Question: With “(S,R)-3-(1-(1-(3-(5-(1-((1-Methyl-1,2,3,6-tetrahydropyridin-4-yl)oxy)ethyl)pyrimidin-2-yl)phenyl)ethyl)-6-oxo-1,6-dihydropyridazin-3-yl)benzonitrile [(S, R)-12b]” as the molecule, how does the IC50 (MHCC97H cells [1]; [9]) read?
Answer: The IC50 was 616 ± 78.2 nM.
